According to paper PMC3083694, “Effects of Intermediates between Vitamins K2 and K3 on Mammalian DNA Polymerase Inhibition and Anti-Inflammatory Activity” (International Journal of Molecular Sciences, 2011):
Values belong to the compound of their own block, whether it stands above or below them.

Tests used:
Human DNA polymerase γ [1] = target: T1, Human DNA polymerase γ (Homo sapiens, UniProt P54098); parameters: method as in PMID 18312466, PMID 18698499, PMID 20030669, PMID 20881898; details: earlier work of the authors; cited from earlier work
T1 construct: made in house
T1 sequence (P54098 1-1239): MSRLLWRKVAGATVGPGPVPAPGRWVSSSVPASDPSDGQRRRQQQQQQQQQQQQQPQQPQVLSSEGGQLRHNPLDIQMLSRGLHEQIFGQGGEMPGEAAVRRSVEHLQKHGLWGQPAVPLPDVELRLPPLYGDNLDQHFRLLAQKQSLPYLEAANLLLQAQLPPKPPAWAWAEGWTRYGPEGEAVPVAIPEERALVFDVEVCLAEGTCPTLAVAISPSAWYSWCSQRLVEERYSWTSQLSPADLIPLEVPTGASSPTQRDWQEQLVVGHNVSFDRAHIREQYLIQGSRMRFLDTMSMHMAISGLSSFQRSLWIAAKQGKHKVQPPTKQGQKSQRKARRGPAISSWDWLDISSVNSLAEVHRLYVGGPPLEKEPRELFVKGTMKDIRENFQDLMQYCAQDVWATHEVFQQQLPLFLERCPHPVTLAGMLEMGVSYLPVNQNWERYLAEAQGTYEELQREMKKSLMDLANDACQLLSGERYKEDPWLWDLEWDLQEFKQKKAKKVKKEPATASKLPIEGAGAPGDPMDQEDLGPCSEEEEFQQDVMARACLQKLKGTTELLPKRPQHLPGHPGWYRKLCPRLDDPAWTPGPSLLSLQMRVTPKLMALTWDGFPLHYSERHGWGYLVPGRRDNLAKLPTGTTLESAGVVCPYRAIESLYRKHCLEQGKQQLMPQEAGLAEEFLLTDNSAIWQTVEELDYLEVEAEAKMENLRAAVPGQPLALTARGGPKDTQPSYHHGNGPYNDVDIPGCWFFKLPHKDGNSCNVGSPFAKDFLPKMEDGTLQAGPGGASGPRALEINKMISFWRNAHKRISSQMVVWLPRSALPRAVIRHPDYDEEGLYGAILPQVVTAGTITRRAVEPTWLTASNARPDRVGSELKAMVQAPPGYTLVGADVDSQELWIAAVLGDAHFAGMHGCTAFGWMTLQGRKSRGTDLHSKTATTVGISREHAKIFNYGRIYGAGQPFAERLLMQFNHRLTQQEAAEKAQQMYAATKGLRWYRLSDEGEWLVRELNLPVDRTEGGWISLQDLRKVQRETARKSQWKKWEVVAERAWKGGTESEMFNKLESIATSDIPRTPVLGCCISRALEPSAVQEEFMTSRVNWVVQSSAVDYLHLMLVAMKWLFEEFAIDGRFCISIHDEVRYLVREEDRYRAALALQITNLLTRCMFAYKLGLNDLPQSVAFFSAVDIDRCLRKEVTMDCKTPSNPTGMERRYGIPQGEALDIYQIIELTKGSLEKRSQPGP

[2] = system: LPS-induced production of TNF-α in RAW264.7 cells; assay: LPS-induced TNF-α production in mouse macrophages (ELISA); format: cell-based; details: 10 and 50 μM tested, concentration not specified, Figure 4
Procedure: A mouse macrophage cell line, RAW264.7, was obtained from American Type Culture Collection (ATCC) (Manassas, VA, U.S.). The cells were cultured in Eagle’s Minimum Essential Medium (MEM) supplemented with 4.5 g of glucose per liter plus 10% fetal calf serum, 5 mM L-glutamine, 50 units/mL penicillin and 50 units/mL streptomycin. The cells were cultured at 37 °C in standard medium in a humidified atmosphere of 5% CO2–95% air.
RAW264.7 cells were placed in a 12-well plate at 5 × 10^4 cells/well and incubated for 24 h. The cells were pretreated with the VK2 and VK3 intermediates (final concentrations of 10 and 50 μM) for 30 min before the addition of 100 ng/mL of LPS. After stimulation with LPS for 24 h, the cell culture medium was collected to measure the amount of TNF-α secreted. The concentration of TNF-α in the culture medium was quantified by using a commercially available enzyme-linked immunosorbent assay (ELISA) development system (Bay Bioscience Co., Ltd., Kobe, Japan) in accordance with the manufacturer’s protocol.

[3] = system: TPA-induced edema on mouse ear; assay: TPA-induced mouse ear inflammatory test; format: in vivo; details: 250 or 500 μg applied to ear 30 min before TPA (0.5 μg); edema evaluated after 7 h; Figure 3
Procedure: All animal studies were performed according to the guidelines outlined in the “Care and Use of Laboratory Animals” of Kobe University. The animals were anesthetized with pentobarbital before undergoing cervical dislocation. Female 8-week-old C57BL/6 mice that had been bred in-house with free access to food and water were used for all experiments. All of the mice were maintained under a 12-h light/dark cycle and housed at a room temperature of 25 °C.
The mouse inflammatory test was performed according to Gschwendt’s method. In brief, an acetone solution of the VK2 and VK3 intermediates (250 or 500 μg in 20 μL) or 20 μL of acetone as a vehicle control was applied to the inner part of the mouse ear. Thirty minutes after the test compound was applied, a TPA solution (0.5 μg/20 μL of acetone) was applied to the same part of the ear. To the other ear of the same mouse, methanol, followed by TPA solution, was applied as a control. After 7 h, a disk (6 mm diameter) was obtained from the ear and weighed. The inhibitory effect (IE) is presented as a ratio of the increase in weight of the ear disks: IE=[(TPA only)−(tested compound plus TPA)]/[(TPA only)−(vehicle)]×100

Human DNA polymerase γ [4] = target: T1, Human DNA polymerase γ; assay: DNA polymerase activity assay, human pol γ; format: biochemical; details: 50 μM of each compound; Figure 2
Procedure: Pols from mammals, a fish (cherry salmon), an insect (fruit fly) and a plant (cauliflower) were purified, and prokaryotic pols and other DNA metabolic enzymes, such as T7 RNA polymerase, T4 polynucleotide kinase and bovine deoxyribonuclease I, were purchased as described in our previous report. The activities of all pols and other DNA metabolic enzymes were measured as described in previous reports.
The components of the pol assay were poly(dA)/oligo(dT)18 and dTTP as the DNA template-primer and 2′-deoxyribonucleoside 5′-triphosphate (dNTP) substrate, respectively. VK2, VK3, and their synthesized derivatives (i.e., MK-3, MK-2 and MK-1) were dissolved in dimethyl sulfoxide (DMSO) at various concentrations and sonicated for 30 s. The sonicated samples (4 μL) were mixed with 16 μL of each pol enzyme (final amount, 0.05 units) in 50 mM Tris-HCl (pH 7.5) containing 1 mM dithiothreitol, 50% glycerol and 0.1 mM EDTA, and kept at 0 °C for 10 min. These inhibitor–enzyme mixtures (8 μL) were added to 16 μL of each standard enzyme reaction mixture (50 mM Tris-HCl [pH 7.5], 1 mM dithiothreitol, 1 mM MgCl2, 15% glycerol, 10 μM poly(dA)/oligo(dT)18 and 10 μM [^3H]-dTTP), and incubation was carried out at 37 °C for 60 min, except for Taq pol, which was incubated at 74 °C for 60 min. Activity without the inhibitor was considered to be 100%, and the activity remaining at each concentration of inhibitor was determined relative to this value. One unit of pol activity was defined as the amount of enzyme that catalyzed the incorporation of 1 nmol dNTP (dTTP) into the synthetic DNA template-primer (poly(dA)/oligo(dT)18, A/T = 2/1) in 60 min at 37 °C under normal reaction conditions for each enzyme (scintillation counts: approximately 1 pmol of incorporated radioactive nucleotides = 100 cpm).

Human DNA polymerase λ = target: T2, Human DNA polymerase λ (Homo sapiens, UniProt Q9UGP5); parameters: method as in PMID 19502749, PMID 14599551; details: reported previously; cited from earlier work
T2 construct: made in house
T2 sequence (Q9UGP5 1-575): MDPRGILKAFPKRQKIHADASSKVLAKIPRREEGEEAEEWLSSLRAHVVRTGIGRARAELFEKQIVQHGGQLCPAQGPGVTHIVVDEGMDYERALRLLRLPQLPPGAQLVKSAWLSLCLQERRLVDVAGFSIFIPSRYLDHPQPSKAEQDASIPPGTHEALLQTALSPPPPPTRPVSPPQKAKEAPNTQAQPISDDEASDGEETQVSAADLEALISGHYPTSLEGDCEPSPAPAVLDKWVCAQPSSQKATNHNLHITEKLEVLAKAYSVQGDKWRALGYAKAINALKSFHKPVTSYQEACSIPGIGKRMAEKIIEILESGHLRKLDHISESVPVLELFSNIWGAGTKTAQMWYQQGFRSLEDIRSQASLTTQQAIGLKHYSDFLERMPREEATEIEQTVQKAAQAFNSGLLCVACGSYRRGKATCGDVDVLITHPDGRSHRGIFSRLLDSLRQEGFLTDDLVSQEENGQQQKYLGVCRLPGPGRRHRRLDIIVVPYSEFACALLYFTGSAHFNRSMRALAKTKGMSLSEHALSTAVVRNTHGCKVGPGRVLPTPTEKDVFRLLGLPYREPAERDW

Structure (SMILES): CC1=C(C/C=C(\C)CCC[C@H](C)CCC[C@H](C)CCCC(C)C)C(=O)c2ccccc2C1=O [VK1, phylloquinone]
- Inhibitor of human pol γ (Human DNA polymerase γ [1]): not

- Inhibitory effect on human pol γ activity (Human DNA polymerase γ [4]): selectively inhibited pol γ
Structure (SMILES): CC1=CC(=O)c2ccccc2C1=O [VK3, menadione, reference compound]
- Inhibitor of human pol γ (Human DNA polymerase γ [1]): potent and specific inhibitor
- Inhibitory effect on LPS-stimulated TNF-α production [2]: moderate inhibitory effect
- Anti-inflammatory activity toward TPA-induced edema on mouse ear [3]: weak effect

Structure (SMILES): COc1cc(/C=C/C(=O)CC(=O)/C=C/c2ccc(O)c(OC)c2)ccc1O [curcumin]
- Inhibitor of pol λ (selectivity) (Human DNA polymerase λ): pol-λ-specific inhibitor
